Columns and labels:
[1] = molecular target: T1, Taq DNA Polymerase (Thermus aquaticus, UniProt P19821); assay: PCR amplification of a 455 bp human numb target with Taq DNA Polymerase in the presence of surfactant, product seen on agarose gel; type: biochemical; details: for PCR product of the expected size: FIG. 1, diluted Taq with 0.00011% Tween-20 and NP-40 carry-over; for Function: Table 1 summary: surfactants or blocked co-polymers that worked in the assay used and those that did not
T1 construct: made in house
Protocol: In order to test the efficacy of detergents on Taq DNA Polymerase, a stock of Taq DNA Polymerase at a base concentration of 111 units/ul was diluted to 5 units/ul in a storage buffer that lacked detergents. The standard Taq DNA Polymerase storage buffer has 0.5% Tween-20 and 0.5% NP-40. In this example 0.625 units of Taq were added per 25 ul reaction, so that represents a change in final detergent concentration of 0.0025% each detergent to 0.00011% of each. A 455 bp single-copy target from the human numb gene was PCR-amplified from 1 ng human genomic DNA in a 25 ul reaction with 0.625 units of the diluted Taq DNA polymerase. The cycling conditions were 95° C. for 2 minutes; 35 cycles of 95° C. for 10 seconds, 55° C. for 20 seconds, and 72° C. for 30 seconds; 72° C. for 5 minutes; and 10° C. until required. An aliquot of 10 ul was run on a 1.5% agarose/ethidium bromide gel.
In FIG. 1, the results of the initial screen of several non-ionic and zwitterionic detergents are shown. In this example there is residual Tween-20 and NP-40 in the enzyme storage buffer. The concentrations of surfactants listed are the final concentration of that surfactant in the assay. All conditions in the example, including the “no detergent” condition, have 0.00011% Tween-20 and 0.00011% NP-40 resulting from carry-over from the enzyme storage buffer. […] As expected Tween-20 and NP-40 worked when present at 0.01% and 0.1%. […] A0-12-2 worked at 0.01% and PEO(10)SAP worked at 0.01, 0.1 and 1%. It is clear that in addition to the standard non-ionic detergents with PEOn, a zwitterionic or ylide with that polymer will also contribute to PCR product generation.
Because a small amount of Tween-20 and NP-40 was carried over in the previous experiment, Taq DNA Polymerase was purified without the addition of detergents after the lysis step to provide a “detergent-free” Taq for use in the next example. The previous numb target and reaction conditions were used with 0.625 units of Taq per reaction.
To further test the effectiveness of PEOn-derivatives, the denaturation temperature was changed from 95° C. to 98° C. in the cycling protocol. This increase in temperature adds additional stress to the function of Taq DNA Polymerase. A selection of PLURONIC® and TETRONIC® surfactants were tested (labels in the figures are abbreviated, for example, “T908” refers to TETRONIC® 908 and “P F87” refers to PLURONIC® F87). In addition, TETRONIC® 904 and 1107 were modified to amine-oxide, forms and then tested.

[2] = test system: thermostable DNA polymerase; assay: Evaluation of protecting groups for reversible modification (hot-start inactivation) of thermostable polymerase; type: biochemical; details: reactivity tested in Tris pH 8 or Tricine pH 8.8
Protocol: Three classes of protecting groups were evaluated: 2,3-substituted maleic anhybrides, alpha-activated compounds that can undergo beta-elimination and molecules that can undergo intramolecular cyclic displacement or assisted elimination. The experimental compounds had the general structure:
Where Y could be N-hydroxysuccinimide (NHS), p-nitrophenol (pNP), or imidazole and X could be CONMe2, MeSO2, CN, NO2, CO2Me, (CH2)2SMe, N(CH3)CHO, or CH2C(O)CH3. The reactivity was tested in Tris pH 8 or Tricine pH 8.8. Buffer pH measurements are at room temperature (˜25° C.). […]

[3] = Cloud point of surfactant; type: physicochemical; details: about 1% detergent concentration in 6×SSPE buffer
Protocol: In some aspects surfactants are selected for use in the methods because they have a cloud point (temperature at which the solid begins to precipitate and give the fluid a cloudy appearance) greater than or equal to 80° C., greater than or equal to 90° C. and in particularly preferred aspects the cloud point is greater than about 100° C. (in each case when measured at about 1% aqueous). The cloud point is the temperature above which a surfactant solution separates into a detergent rich phase and a detergent poor phase (see, Rosen et al. Surfactants and interfacial Phenomena, ^3rd ed. 2004, Hoboken; John Wiley & Sons, Inc. and Neugebauer, J. M. Detergents: an overview, Methods Enzymol, 1990, 182, p. 239-53). The separation is visualized as turbidity within the solution. An increase in temperature favors micelle formation; the rapid growth of micelles along with intermicellar attraction likely results in the formation of large particles that can precipitate out of solution, thus causing turbidity. This phase separation is reversible upon cooling. […]
The amine oxide detergents of the present invention have higher cloud points than their non-amine oxide counterparts. For example, PEO(10)stearlyamine has a cloud point of 60° C. compared to PEO(10)stearylamine N-oxide's cloud point of greater than 100° C., in both cases when measured at about 1% detergent concentration in 6×SSPE buffer. […]

T1 sequence (P19821 whole entry): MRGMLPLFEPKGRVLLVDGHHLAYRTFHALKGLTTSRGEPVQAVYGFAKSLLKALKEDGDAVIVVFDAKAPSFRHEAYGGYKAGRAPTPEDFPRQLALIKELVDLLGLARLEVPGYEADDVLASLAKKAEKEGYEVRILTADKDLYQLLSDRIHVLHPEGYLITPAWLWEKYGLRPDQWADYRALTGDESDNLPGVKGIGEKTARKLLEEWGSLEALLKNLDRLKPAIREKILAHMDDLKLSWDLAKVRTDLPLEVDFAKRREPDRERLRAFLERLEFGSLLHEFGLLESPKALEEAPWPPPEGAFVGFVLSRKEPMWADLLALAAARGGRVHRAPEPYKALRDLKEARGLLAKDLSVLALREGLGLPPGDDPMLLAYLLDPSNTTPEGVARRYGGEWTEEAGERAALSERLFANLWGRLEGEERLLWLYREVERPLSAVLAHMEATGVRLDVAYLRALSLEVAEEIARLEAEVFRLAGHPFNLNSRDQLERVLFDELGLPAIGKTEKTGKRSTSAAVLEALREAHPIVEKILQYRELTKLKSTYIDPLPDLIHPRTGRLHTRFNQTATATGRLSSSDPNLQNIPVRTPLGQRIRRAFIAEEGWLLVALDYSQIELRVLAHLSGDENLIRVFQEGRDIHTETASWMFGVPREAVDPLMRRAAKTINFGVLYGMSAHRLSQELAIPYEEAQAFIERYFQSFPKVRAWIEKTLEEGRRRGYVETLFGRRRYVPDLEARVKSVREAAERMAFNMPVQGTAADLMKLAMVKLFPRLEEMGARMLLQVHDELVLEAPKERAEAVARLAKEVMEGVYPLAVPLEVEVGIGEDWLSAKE

Compound | PCR product of the expected size ([1]; 0.01% surfactant final) | PCR product of the expected size ([1]; 0.1% surfactant final) | PCR product of the expected size ([1]; 1% surfactant final) | Function [1] | other results
CCCCCCCCCCCC[N+]([O-])(CCO)CCO [AO-12-2, N,N-Bis(2-hydroxyethyl)laurylamine N-Oxide] | resulted in a product | not | not | – | PCR product of the expected size ([1]; 0.01% surfactant final, listed as A0-12-2): worked
CS(=O)(=O)CCOC(=O)Oc1ccc([N+](=O)[O-])cc1 [MSEC, 2-(Methylsulfonyl)ethyl 4-nitrophenyl carbonate] | – | – | – | – | effectiveness as reversible modifier of polymerase [2]: most effective
NP 40 [reference compound] | worked | worked | – | YES | –
PEO(10) Stearyl (3-sulfo-propyl)-ammonium [PEO(10) SAPS] | – | – | – | YES | –
Polyethoxylated (10) Stearylamine N-Oxide [PE0 (10) SAO] | worked | worked | worked | YES | cloud point [3]: greater than 100 °C; PCR product ([1]; detergent-free Taq DNA Polymerase, FIG. 2, 3, 4): PCR product was observed
Polyethoxylated/Polypropoxylated (isodecyloxypropyl)amine N-Oxide [AO-405] | – | – | – | – | PCR product of the expected size ([1]; concentration not given): no visible product

— US9085761B1, “Methods and compositions for amplification of nucleic acids” (Affymetrix, Inc., priority 2012, dated 2015)
